Entries after “also recorded” stand apart in the source; their conditions may differ. Like-named read-outs stand apart in the source and are kept apart here.
Tests used:
Cytotoxicity assay (MTT) = details: mouse
Description: (§3) The toxicities of different concentrations of compounds to cells were evaluated using the MTT assay [32, 33]. Firstly, the RAW 264.7 cells were maintained in DMEM with 10% FBS at 37 °C in a humid atmosphere containing 5% CO2. Then, the cells were seeded in 96-well plates (3 × 10^4 cells/well) after being passaged three times at a 1:3 split ratio. […] After being cultured for 24 h, the supernatant (100 μL) was transferred out and MTT (5 mg/mL, 20 μL for each well) was added, and the mixed solvent of 0.012 M HCl, 5% i-PrOH, and 10% sodium dodecyl sulfate (100 μL) was added 4 h later. The absorbance value was measured at 492 nm by a Thermo Multiskan MK3 microplate reader (Thermo-Labsystem, Franklin, MA, USA).

[1] = test system: nitric oxide (NO) production in RAW264.7 macrophages stimulated by lipopolysaccharide; assay: NO inhibition assay (Griess method) in LPS-stimulated RAW264.7 cells; format: cell-based; details: for IC50: read-out: IC50 of inhibition of NO production; for SI (selectivity index): calculated from CC50 and IC50
Text: As a kind of pro-inflammatory mediator, NO plays a complex role and participates in many different kinds of inflammatory reactions, the level of which usually varies to different pathological degrees. The isolated novel compounds and 10 known ones in this research were chosen to evaluate the activity of inhibiting NO released by RAW264.7 cells after being stimulated by LPS.
The Griess method is generally used for determining NO concentration in anti-inflammatory experiments. The supernatant removed from the 96-well plates mentioned in Section 3.3.1 was interacted with Griess reagent (100 μL), and the absorbance was measured at 540 nm after 15 min. Two drugs, L-NIL and IND, were used as positive controls for comparative analysis in the test.
(§1) The IC50 values for NO inhibitory effects were calculated using SPSS v.20.0 (SPSS Inc., Chicago, IL, USA) and results were given as means ± SD. The mRNA expression levels were compared using variance analysis with GraphPad Prism 7.0 (GraphPad Software Inc., San Diego, CA, USA), and results were expressed as means ± SEM. All tests were carried out in triplicate.

IL-1β mRNA = assay: qPCR assay of IL-1β mRNA expression in LPS-stimulated RAW264.7 cells; format: cell-based; details: 24 h
Description: (§2) The RAW264.7 cells were seeded in 12-well plates at 3 × 10^4 cells/well; after being stimulated by LPS (1.0 μg/mL) and treated with two different concentrations of compounds for 24 h, the total RNA was extracted from the cells with Trizol reagent (Invitrogen, Thermo Fisher Scientific Inc., Waltham, MA, USA). After measuring the concentration, 1 μg of total RNA was used to obtain complementary DNA (cDNA) with a qRT super mix (Bimake Co., Ltd., Houston, SD, USA). The amplification of cDNA was carried out on a Quantitative RT-PCR system (Agilent Technologies, Stratagene, Inc., Santa Clara, CA, USA) using SYBR green qPCR master mix (Bimake Co., Ltd., Houston, SD, USA). The thermal cycling conditions were as follows: 95 °C for 10 min, 40 cycles of 95 °C for 30 s, 55 °C for 1 min, and 72 °C for 1 min, followed by 95 °C for 1 min, 55 °C for 30 s, and 95 °C for 30 s.
as §1

iNOS mRNA = assay: qPCR assay of iNOS mRNA expression in LPS-stimulated RAW264.7 cells; format: cell-based; details: 24 h
Description: as §2, §1

TNF-α mRNA = assay: qPCR assay of TNF-α mRNA expression in LPS-stimulated RAW264.7 cells; format: cell-based; details: 24 h
Description: as §2, §1

COX-2 mRNA = assay: qPCR assay of COX-2 mRNA expression in LPS-stimulated RAW264.7 cells; format: cell-based; details: 24 h
Description: as §2, §1

IL-6 mRNA = assay: qPCR assay of IL-6 mRNA expression in LPS-stimulated RAW264.7 cells; format: cell-based; details: 24 h
Description: After measuring the concentration, 1 μg of total RNA was used to obtain complementary DNA (cDNA) with a qRT super mix (Bimake Co., Ltd., Houston, SD, USA). The amplification of cDNA was carried out on a Quantitative RT-PCR system (Agilent Technologies, Stratagene, Inc., Santa Clara, CA, USA) using SYBR green qPCR master mix (Bimake Co., Ltd., Houston, SD, USA). The thermal cycling conditions were as follows: 95 °C for 10 min, 40 cycles of 95 °C for 30 s, 55 °C for 1 min, and 72 °C for 1 min, followed by 95 °C for 1 min, 55 °C for 30 s, and 95 °C for 30 s. […] The mRNA expression levels were compared using variance analysis with GraphPad Prism 7.0 (GraphPad Software Inc., San Diego, CA, USA), and results were expressed as means ± SEM. All tests were carried out in triplicate.

[2] = RAW 264.7 cells, CC50 (median cytotoxic concentration), RAW 264.7 cells, MTT, 24 h, n = 3, >200: CC50 could not be obtained, cell survival rate >98% at 200–6.25 μM
[3] = Mus musculus, RAW264.7, 24 h, RAW264.7 cells, LPS 1 μg/mL, 24 h, Griess, n = 3, mean ± SD
[4] = at 40 μM and 50 μM, LPS-stimulated RAW264.7 cells
[5] = LPS 1.0 μg/mL, RAW264.7 cells, concentration not given
[6] = at 5 μM and 10 μM, LPS-stimulated RAW264.7 cells
[7] = RAW264.7 cells, LPS 1 μg/mL, 24 h, Griess, n = 3, mean ± SD
[8] = at 20 μM and 30 μM, vs LPS group, RAW264.7 cells

Description for RAW 264.7 cells: as §3

Molecule | CC50 at 24 h (Cytotoxicity assay (MTT); [2]) | IC50 [1, 3] | SI (selectivity index) [1] | effect on mRNA expression of iNOS (iNOS mRNA; [5]) | effect on mRNA expression of TNF-α (TNF-α mRNA; [5]) | effect on mRNA expression of COX-2 (COX-2 mRNA; [5]) | further results
COc1c(O)ccc2c1OC[C@H](c1cc3c(cc1O)OCO3)[C@H]2O [Compound 2, (3S,4R)-7,2′-dihydroxy-8-methoxy-4′,5′-methylenedioxy-isoflavan-4-ol] | > 200 µM | 46.3 ± 5.83 µM | >4.32 |  |  |  | 
Oc1ccc2c(c1)OC[C@H](c1cc3c(cc1O)OCO3)[C@H]2O [Compound 4, (3S,4R)-7,2′-dihydroxy-4′,5′-methylenedioxy-isoflavan-4-ol] | > 200 µM | 40.1 ± 6.94 µM | 7.50 |  |  |  | effect on mRNA expression of IL-1β (IL-1β mRNA; [4]): could inhibit
O=c1c(-c2ccc(O)cc2)coc2cc(O[C@@H]3O[C@H](CO)[C@@H](O)[C@H](O)[C@H]3O)cc(O)c12 [Compound 13, genistin] | > 200 µM | 36.4 ± 2.47 µM |  | could not inhibit | could not inhibit | could not inhibit | effect on mRNA expression of IL-1β (IL-1β mRNA; [5]): declined sharply
O=C1C[C@@H](c2ccc(O)cc2)Oc2cc(O)ccc21 [Compound 8, liquiritigenin] | > 200 µM | 16.3 ± 4.45 µM | 19.25 |  | significantly downregulate |  | 
COC1=CC(=O)C=C(OC)C1=O [Compound 1, 2,6-dimethoxy-1,4-benzoquinone] |  |  | 4.61 | can reduce | can reduce | can reduce | CC50 at 24 h (Cytotoxicity assay (MTT); RAW 264.7 cells): 26.2 ± 1.26 µM; effect on mRNA expression of IL-6 (IL-6 mRNA; [6]): markedly reduced; effect on mRNA expression of iNOS (iNOS mRNA; [6]): markedly reduced; effect on mRNA expression of IL-1β (IL-1β mRNA; [6]): markedly reduced; inhibition of NO production compared with L-NIL (in words) ([1]; LPS-stimulated RAW264.7 cells): potent inhibition; IC50 ([1]; Mus musculus, RAW264.7, 24 h): 5.69 ± 0.28 µM; effect on mRNA expression of TNF-α (TNF-α mRNA; [6]): markedly reduced; effect on mRNA expression of COX-2 (COX-2 mRNA; [6]): markedly reduced
4,7,2′-trihydroxy-4′-methoxy-isoflavanol [Compound 3] |  |  |  |  |  |  | CC50 (RAW 264.7 cells): > 200 µM; effect on mRNA expression of IL-1β (IL-1β mRNA; [4]): could inhibit; IC50 [1, 7]: 35.4 ± 2.92 µM
O=c1c(-c2ccc(O)cc2)coc2cc(O)ccc12 [Compound 12, daidzein] | > 200 µM | 35.5 ± 2.69 µM | 11.64 |  |  |  | effect on mRNA expression of IL-6 (IL-6 mRNA; [5]): inhibition; effect on mRNA expression of IL-1β (IL-1β mRNA; [5]): inhibition
COc1ccc(-c2coc3cc(O)ccc3c2=O)cc1 [Compound 11, formononetin] | 103 ± 9.56 µM | 21.1 ± 4.8 µM | 4.88 | notably downregulated |  | notably downregulated | 
COc1ccc(-c2coc3cc([O-])ccc3c2=O)cc1.[Na+] [Compound 7, formononetin sodium] |  |  | 14.73 | negate the effect | negate the effect |  | effect on mRNA expression of IL-6 (IL-6 mRNA; [5]): negate the effect; effect on mRNA expression of IL-1β (IL-1β mRNA; [5]): negate the effect; IC50 [1, 7]: 22.8 ± 0.55 µM
COc1ccc(C2COc3cc(OC4OC(CO)C(O)C(O)C4O)ccc3C2O)c(O)c1 [Compound 14, (3S,4R)-4,2′-dihydroxy-4′-methoxy-isoflavanol-7-glucopyranoside] | > 200 µM | 123 ± 9.92 µM | 5.86 |  |  |  | 
CCCCCC(=O)CCC(=O)OCCc1ccc(O)c(OC)c1 [Compound 5, Homovanillyl-4-oxo-nonanoate] | > 200 µM | 45.9 ± 4.76 µM | >4.36 |  |  |  | 
COc1ccc2c(c1)c(CC(=O)O)c(C)n2C(=O)c1ccc(Cl)cc1 [IND, indomethacin, reference compound] | 633 ± 75.1 µM | 55.4 ± 3.71 µM | 11.43 |  |  |  | 
COc1ccc(-c2cc3cc(O)c(O)cc3oc2=O)c(OC)c1OC [Compound 6, 3-(2′,3′,4′-trimethoxyphenyl)-6,7-dihydroxycoumarin] | > 200 µM | 28.3 µM | 24.81 | can reduce | can reduce | can reduce | effect on mRNA expression of iNOS (iNOS mRNA; [8]): reduced significantly; effect on mRNA expression of IL-1β (IL-1β mRNA; [8]): reduced significantly; IC50 [1, 7]: 28.3 ± 6.44 µM; effect on mRNA expression of TNF-α (TNF-α mRNA; [8]): reduced significantly
O=c1c(-c2ccc(O)cc2)coc2cc(O)cc(O)c12 [Compound 9, genistein] |  | 16.9 ± 3.39 µM | 210.84 | can reduce | can reduce | can reduce | CC50 at 24 h (Cytotoxicity assay (MTT)): > 200 µM; effect on mRNA expression of iNOS (iNOS mRNA; [8]): strikingly downregulated; effect on mRNA expression of TNF-α (TNF-α mRNA; [8]): strikingly downregulated; effect on mRNA expression of COX-2 (COX-2 mRNA; [8]): strikingly downregulated
O=C(/C=C/c1ccc(O)cc1)c1ccc(O)cc1O [Compound 10, isoliquiritigenin] | 133 ± 2.11 µM | 6.78 ± 0.59 µM | 19.68 | can reduce | can reduce; also recorded: significantly downregulate | can reduce | 
COc1ccc([C@@H]2COc3cc(O)ccc3C2)c(O[C@@H]2O[C@H](CO)[C@@H](O)[C@H](O)[C@H]2O)c1 [Compound 15, (3R)-vestitol-2′-O-β-D-glucopyranoside] | > 200 µM | > 200 µM | <1.98 |  |  |  | 
CC(=N)NCCCC[C@H](N)C(=O)O [L-NIL, L-N^6-(1-iminoethyl)-lysine, reference compound] | > 200 µM |  | >10.48 |  |  |  | IC50 ([1]; Mus musculus, RAW264.7, 24 h): 19.1 ± 1.18 µM
